Results on one sequence are retold here after publication PMC5618426, “APETx4, a Novel Sea Anemone Toxin and a Modulator of the Cancer-Relevant Potassium Channel KV10.1” (Marine Drugs, 2017).

The test system of one data set is NIH-3T3. Briefly: proliferation (IncuCyte confluency). The format is cell-based, mouse. The settings on record: cell confluency (%) over time, n = 4 wells. The method, then: The cell proliferation was quantified in terms of cell confluency (%) over time; data points were collected every hour. […] LNCaP, it is presumed that the observed effect cannot only be attributed to KV10.1 inhibition (Figure S5).
Cell lines SH-SY5Y (ACC 209), LNCaP (ACC 256) and NIH-3T3 (ACC 59) were purchased from DSMZ (Germany). MDA-MB-435S (HTB 129) and hTERT RPE-1 (CRL 4000) were obtained from ATCC (USA). Cell lines were cultured in their recommended media supplemented with 10% or 15% FCS (PAA laboratories, Cölbe, Germany) at 37 °C in humidified 5% CO2 atmosphere. All media were purchased from ThermoFisher Scientific (Waltham, MA, USA).
Cell proliferation, cytotoxicity and apoptosis were assessed in a 96-well microtiter plate by live-cell imaging using an IncuCyte Zoom System (Essen BioScience, Welwyn Garden City, UK). Cell proliferation was monitored in terms of cell confluency (%). Cell cytotoxicity was assessed by the CellTox Green Dye assay (Promega, Madison, WI, USA). The IncuCyte Caspase-3/7 apoptosis assay (Essen BioScience, UK) was used to evaluate the effect of APETx4 on the apoptotic pathway.
Live-cell imaging data were collected from the IncuCyte Zoom software and analyzed using GraphPad Prism 6 software. Proliferation was measured as Phase Object Confluence (%), cytotoxicity and apoptosis were measured as Green Object Count (1/mm²). Data points were collected every hour. […]

Positions of bridges follow the written chain, without caps; N, C: chain ends. No end group written: not given here.

Take “GTTCYCGKTIGIYWFGKYSCPTNRGYTGSCPYFLGICCYPVD (disulfide 4-37, 6-30, 20-38) [APETx4]”: in the data set on Xenopus oocytes, the “cytotoxic effect in Xenopus oocytes” value is “cytotoxic effect is not observed”. The antiproliferative effect result with NIH-3T3 is “without affecting the proliferation of healthy fibroblast cells”.
